Measured values reported in patent US9695153B2, “Oligooxopiperazines for p53 reactivation” (New York University, priority 2013, dated 2017).

Assays:
[1] = tested on: p53 transcriptional activity in UMSCC47 cells; assay: p53 transcriptional activity, Cignal p53 luciferase reporter; format: cell-based, human; details: 24 hours; for p53 activity, increase: vs vehicle
Description: Cells were transfected with 100 ng of Cignal p53 reporter (SABiosciences, Valencia, Calif.) using Lipofectamine 2000. Cignal p53 reporter contains tandem repeats of the p53 consensus transcriptional response element. After 48 hours, cells were washed with cold PBS, lysed in passive lysis buffer (Promega), and measured for Firefly/Renilla dual luciferase activities in a luminometer using the Dual-Light System (Applied Biosystems, Foster City, Calif.). […] to control for transfection efficiency. A modification to the protocol was used for compound treatment. UMSCC47 cells were transfected with 100 ng of Cignal p53 reporter. After 24 hours, cells were treated with vehicle, CH1iB (10 μM), cis-platinum (10 μM), or combination of CH1iB (10 μM) and cis-platinum (10 μM) and measured for Firefly/Renilla dual luciferase activities 24 hours post-treatment.

UMSCC47 cells [2] = assay: Cell proliferation (MTT); format: cell-based, human; details: for cell proliferation, single-agent: UMSCC47, 10 μM; for cell proliferation, in combination with cis-platinum: UMSCC47, 10 μM with cis-platinum 10 μM
Description: (§1) Cell proliferation was assessed using the MTT reagent (Roche Molecular Biochemicals, Nutley, N.J.) to detect metabolic active cells. Absorbance was measured at 570 nm in the Spectra Max 190 ELISA reader (Molecular Devices, Sunnyvale, Calif.) after overnight incubation. For clonogenic survival, 200 cells per well were plated in complete growth media and allowed to grow until visible colonies were formed (14 days). Cell colonies were fixed with cold methanol, stained with 0.25% crystal violet in 25% methanol, washed, and air dried. For apoptosis, cells were harvested, washed with cold PBS, and co-stained with Annexin V and propidium iodide according to the manufacturer's protocol (ApoAlert Annexin V-FITC Apoptosis Kit; Clontech). Apoptotic cells were analyzed using BD FACS Calibur (BD Biosciences Corporation, Franklin Lakes, N.J.) at The Ohio State University Comprehensive Cancer Center Analytical Cytometry Core.

UMSCC47 cells [3] = assay: Tumorsphere formation; format: cell-based, human; details: UMSCC47, 10 μM, 7 days, vs vehicle
Description: Cells were harvested and seeded in a serum-free defined medium consisting of KSF medium supplemented with epidermal growth factor, basic fibroblast growth factor, insulin, and hydrocortisone in low-attachment plates (Corning Incorporated, Corning, N.Y.) for tumorspheres. Tumorsphere formation efficiency was calculated as the number of tumorspheres (≧50 μm in diameter) formed in 7 days divided by the original number of cells seeded. Tumorsphere diameter was measured using NIS-Elements software.

UMSCC74A cells = assay: Cell proliferation (MTT); format: cell-based, human; details: for cell proliferation, single-agent: HPV-negative UMSCC74A, 10 μM; for efficacy of cis-platinum on proliferation, combination: UMSCC74A, 10 μM with cis-platinum 10 μM
Description: as §1

[4] = tested on: IMR90 (human normal fibroblasts); assay: Cell proliferation (MTT); format: cell-based; details: for efficacy of cis-platinum on proliferation, combination: IMR90 fibroblasts, 10 μM with cis-platinum 10 μM; for cell proliferation, single-agent: human normal IMR90 fibroblasts, 10 μM
Description: as §1

[5] = tested on: total and acetylated p53 in UMSCC47 cells; assay: Western blot of total and acetylated[K382] p53; format: cell-based, human; details: 24 hours; for p53 accumulation and acetylated p53 levels: UMSCC47, 10 μM
Description: (§2) Whole cell lysates were mixed with Laemmli loading buffer, boiled, separated by SDS-PAGE, and transferred to a nitrocellulose membrane. Subsequently, immunoblot analyses were performed using antibodies specific to V5 (Invitrogen), p53 (sc-126, Santa Cruz Biotechnology, Santa Cruz, Calif.), or acetylated[[…]]-p53 (2525, Cell Signaling Technology). The signal was developed using the SuperSignal Western Blotting Kit (Pierce, Rockford, Ill.).

[6] = tested on: total and acetylated p53 in UMSCC74A cells; assay: Western blot of total and acetylated[K382] p53; format: cell-based, human; details: 10 μM, 24 hours
Description: as §2

[7] = molecular target: T1, HPV16 E6-p300 association in UMSCC47 cells (Homo sapiens, UniProt Q09472); assay: Immunoprecipitation, HPV16 E6-p300 association; format: cell-based; details: UMSCC47, 10 μM, 24 hours
T1 construct: endogenous in cells; host or cells: UMSCC47 (HPV16-positive HNSCC cells)
Description: Cells were lysed with NP buffer [50 mM Tris (pH 8.0), 150 mM NaCl, 0.5% deoxycholate, 0.1% SDS, and 1.0% NP-40] containing 1× Protease Inhibitor Cocktail (Roche, Switzerland) at 4° C. with gentle rocking for 15 min. The supernatant was pre-cleared to block nonspecific binding with 50 μL protein A/G Agarose beads (Pierce Biotechnology) that had been pre-washed with NP buffer before use. Equal amounts of anti-E6 antibody (Abcam), anti-p300 antibody (Millipore), or IgG antibody (Cell Signaling) were added to the respective samples. After 4 hours incubation at 4° C., 50 μL pre-washed protein A/G-agarose beads were added to each tube and immunoprecipitation was performed by rocking overnight at 4° C. The immunoprecipitated complexes were washed with NP buffer and then eluted using 2×SDS sample buffer. Eluted sample and 10% of input were resolved by SDS-PAGE for Western blot analysis with anti-E6, anti-p300, or anti-V5 antibodies.

[8] = tested on: p53 transcriptional activity in UMSCC74A cells; assay: p53 transcriptional activity, Cignal p53 luciferase reporter; format: cell-based, human; details: HPV-negative UMSCC74A, 10 μM, 24 hours
UMSCC47 cells [9] = assay: Clonogenic survival; format: cell-based, human; details: UMSCC47, 10 μM, 14 days, vs vehicle
Description: as §1

[10] = tested on: p300, p53, p21, miR-34a, miR-200c expression in UMSCC47 cells; assay: Quantitative real-time PCR (TaqMan); format: cell-based, human; details: UMSCC47, 10 μM, 24 hours
Description: (§3) Cells were extracted for total RNA using the TRIzol® reagent (Invitrogen) or TaqMan PreAmp Cells-to-CT kit (Applied Biosystems). Expression of p300, p53, p21, miR-34a and miR-200c were determined using the Applied Biosystems 7900HT Fast Real-Time PCR System with validated TaqMan gene expression assays (Applied Biosystems). p53, p300, and p21 expression were normalized to GADPH and miR-34a and miR-200c expression were normalized to RNU44 using the ΔΔCt method.

[11] = tested on: p300, p53, p21, miR-34a, miR-200c expression in UMSCC74A cells; assay: Quantitative real-time PCR (TaqMan); format: cell-based, human; details: 10 μM, 24 hours
Description: as §3

UMSCC47 cells [12] = assay: Apoptosis, Annexin V FACS; format: cell-based, human; details: UMSCC47, 10 μM, 24 hours, vs vehicle
Description: as §1

[13] = HPV-positive UMSCC47 cells, 10 μM
[14] = UMSCC47, CH1iB 10 μM and cis-platinum 10 μM

T1 sequence (Q09472 whole entry): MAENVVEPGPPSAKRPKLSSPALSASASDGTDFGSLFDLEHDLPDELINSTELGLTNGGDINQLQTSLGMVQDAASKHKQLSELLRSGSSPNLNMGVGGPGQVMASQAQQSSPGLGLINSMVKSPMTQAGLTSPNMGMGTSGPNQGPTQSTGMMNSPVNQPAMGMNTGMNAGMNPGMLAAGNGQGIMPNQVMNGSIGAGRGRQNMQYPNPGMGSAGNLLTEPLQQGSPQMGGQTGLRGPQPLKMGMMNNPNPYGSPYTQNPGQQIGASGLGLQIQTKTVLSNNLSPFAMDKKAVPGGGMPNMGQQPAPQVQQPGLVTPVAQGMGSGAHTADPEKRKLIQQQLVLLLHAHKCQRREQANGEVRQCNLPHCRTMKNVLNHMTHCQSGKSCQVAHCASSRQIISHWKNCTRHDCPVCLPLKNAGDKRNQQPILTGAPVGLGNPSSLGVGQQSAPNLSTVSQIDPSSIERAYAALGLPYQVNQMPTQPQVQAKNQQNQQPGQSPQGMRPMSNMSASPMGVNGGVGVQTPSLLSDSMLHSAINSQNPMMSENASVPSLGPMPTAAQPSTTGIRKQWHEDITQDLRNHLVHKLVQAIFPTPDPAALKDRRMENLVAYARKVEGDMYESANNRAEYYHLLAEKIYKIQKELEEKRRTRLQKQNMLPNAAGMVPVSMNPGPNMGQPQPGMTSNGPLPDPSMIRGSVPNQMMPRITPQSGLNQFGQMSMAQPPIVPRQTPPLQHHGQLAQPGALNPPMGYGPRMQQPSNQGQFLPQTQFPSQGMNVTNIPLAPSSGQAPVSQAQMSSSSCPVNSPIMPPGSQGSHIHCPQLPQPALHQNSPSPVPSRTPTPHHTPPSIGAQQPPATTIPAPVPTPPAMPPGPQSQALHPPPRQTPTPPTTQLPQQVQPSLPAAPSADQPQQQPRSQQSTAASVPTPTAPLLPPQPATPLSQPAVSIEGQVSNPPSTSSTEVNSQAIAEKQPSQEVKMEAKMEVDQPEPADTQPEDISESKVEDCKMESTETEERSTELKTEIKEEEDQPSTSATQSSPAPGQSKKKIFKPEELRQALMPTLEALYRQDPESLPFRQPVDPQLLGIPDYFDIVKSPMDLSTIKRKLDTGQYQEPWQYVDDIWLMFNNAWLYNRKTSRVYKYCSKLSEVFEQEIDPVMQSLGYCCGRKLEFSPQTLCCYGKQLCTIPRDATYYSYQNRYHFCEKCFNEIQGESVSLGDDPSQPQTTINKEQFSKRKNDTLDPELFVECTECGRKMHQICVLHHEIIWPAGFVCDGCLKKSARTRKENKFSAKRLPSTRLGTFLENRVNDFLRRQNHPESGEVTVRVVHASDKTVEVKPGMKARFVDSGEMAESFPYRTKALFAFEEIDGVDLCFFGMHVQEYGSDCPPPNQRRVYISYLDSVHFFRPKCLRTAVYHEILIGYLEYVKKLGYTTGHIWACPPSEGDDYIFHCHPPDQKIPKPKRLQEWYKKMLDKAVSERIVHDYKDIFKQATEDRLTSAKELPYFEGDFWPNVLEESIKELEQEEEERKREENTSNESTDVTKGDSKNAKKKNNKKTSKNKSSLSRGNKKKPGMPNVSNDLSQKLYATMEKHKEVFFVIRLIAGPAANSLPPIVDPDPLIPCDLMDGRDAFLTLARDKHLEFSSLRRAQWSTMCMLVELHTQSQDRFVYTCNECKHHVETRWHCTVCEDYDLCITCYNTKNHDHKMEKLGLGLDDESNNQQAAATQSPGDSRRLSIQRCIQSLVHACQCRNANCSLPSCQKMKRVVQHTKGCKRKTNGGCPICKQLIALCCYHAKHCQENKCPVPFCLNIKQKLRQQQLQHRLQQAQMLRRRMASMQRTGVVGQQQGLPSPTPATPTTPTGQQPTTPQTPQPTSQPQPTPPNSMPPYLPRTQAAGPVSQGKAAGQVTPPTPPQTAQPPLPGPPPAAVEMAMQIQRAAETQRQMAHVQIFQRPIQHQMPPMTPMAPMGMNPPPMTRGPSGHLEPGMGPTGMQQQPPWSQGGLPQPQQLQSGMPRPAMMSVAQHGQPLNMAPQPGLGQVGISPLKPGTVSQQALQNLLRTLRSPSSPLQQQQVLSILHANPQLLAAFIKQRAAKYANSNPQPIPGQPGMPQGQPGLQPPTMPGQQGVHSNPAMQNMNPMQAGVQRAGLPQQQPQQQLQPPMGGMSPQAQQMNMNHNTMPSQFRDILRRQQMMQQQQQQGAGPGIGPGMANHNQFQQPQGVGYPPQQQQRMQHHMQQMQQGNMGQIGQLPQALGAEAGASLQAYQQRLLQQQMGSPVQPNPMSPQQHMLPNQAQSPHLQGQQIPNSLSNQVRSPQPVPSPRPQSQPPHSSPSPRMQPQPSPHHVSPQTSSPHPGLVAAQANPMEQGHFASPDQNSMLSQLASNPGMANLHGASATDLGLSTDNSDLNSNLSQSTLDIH

Substance | p53 activity, increase [1, 13] | cell proliferation, single-agent (UMSCC47 cells [2]) | cell proliferation, in combination with cis-platinum (UMSCC47 cells [2]) | effect of cis-platinum on p53 activity, combination [1, 14] | tumorsphere formation, reduction (UMSCC47 cells [3]) | cell proliferation, single-agent (UMSCC74A cells) | efficacy of cis-platinum on proliferation, combination (UMSCC74A cells) | efficacy of cis-platinum on proliferation, combination [4] | cell proliferation, single-agent [4] | p53 accumulation and acetylated p53 levels [5] | effect of cis-platinum on p53 accumulation and acetylation, combination [5, 14] | p53 levels [6] | association between E6 and p300 [7] | p53 activity [8] | clonogenic survival, reduction (inhibition) (UMSCC47 cells [9]) | p21, miR-34a, and miR-200c expression [10] | expression of p300, p53, and p53-regulated genes [11] | apoptosis, enhancement (UMSCC47 cells [12]) | p53 activity [1, 13]
XELA*RAADQ-NH2 (ELXRAADQ; not fully specified; hydrogen bond surrogate crosslink; C-terminal amide; CH1iB-MUT) [specificity control for CH1iB in which one leucine residue is mutated to alanine] | 14% | no effect | no effect | – | – | – | – | – | – | – | – | – | – | – | – | – | – | – | –
XELA*RALDQ-NH2 (ELXRALDQ; not fully specified; hydrogen bond surrogate crosslink; C-terminal amide; CH1iB) [hydrogen bond surrogate helix mimic of HIF-1α targeting site B of p300 CH1] | 71% | inhibited | potentiated the anti-proliferative efficacy of cis-platinum | potentiated the effect of cis-platinum | 20% | had no effect | did not augment | did not augment | had no effect | enhanced | potentiated the effect of cis-platinum | did not modulate | reduced | did not modulate | 35% | modest but significant increase | unchanged | 353% | –
XTAA*DCEYNAR (TAXDCEYNAR; not fully specified; hydrogen bond surrogate crosslink; CH1iA) [hydrogen bond surrogate stabilized α-helical mimic of HIF-1α targeting site A of p300 CH1, reference compound] | – | inactive | – | – | – | had no effect | did not augment | did not augment | had no effect | had no effect | – | did not modulate | not | did not modulate | – | – | unchanged | – | had no effect
